# Test results reported in patent US20090069359A1 (priority 2006, published 2009).
# Tests used:
# facial wrinkles = conditions: human, in vivo
# hair loss and baldness = test system: hair loss and baldness; parameters: species or system human; conditions: in vivo
# erectile dysfunction = test system: erectile dysfunction; parameters: species or system human; conditions: in vivo
# Peyronie's disease = test system: Peyronie's disease; parameters: species or system human; conditions: in vivo
molecule,measurement,setting,value
"CC1=C(/C=C/C(C)=C/C=C/C(C)=C/C(=O)O)C(C)(C)CCC1 [Retin A, tretinoin]",duration of wrinkle reducing effect,facial wrinkles,lasts up to one week
same,period over which wrinkle reducing effect occurs,facial wrinkles,72 h
same,wrinkle treatment outcome,facial wrinkles,used successfully
C[C@H]1C[C@H]2[C@@H]3CCC4=CC(=O)C=C[C@]4(C)[C@@]3(F)[C@@H](O)C[C@]2(C)[C@@]1(O)C(=O)CO [betamethasone],time of treatment after which new hair growth began,hair loss and baldness,30 days
CC12CCC(CC1)C(C)(C)O2 [eucalyptol],erections,erectile dysfunction,improved erections were obtained
CC1CCC(C(C)C)C(O)C1 (stereo not drawn) [menthol],erections,erectile dysfunction,improved erections were obtained
Nc1cc(N2CCCCC2)nc(N)[n+]1[O-] [minoxidil],time of treatment after which new hair growth began,hair loss and baldness,30 days
CC(C)NCC(O)COc1cccc2ccccc12 (stereo not drawn) [propranolol],penile curvature outcome,Peyronie's disease,gradually attained a straightened penis
same,time to straightened penis,Peyronie's disease,≤ 90 days
botulinum toxina [Botox],duration of wrinkle reducing effect,facial wrinkles,lasts up to one week
same,period over which wrinkle reducing effect occurs,facial wrinkles,72 h
same,wrinkle treatment outcome,facial wrinkles,used successfully
